Measurements published in the NIST ThermoML archive (doi:10.1021/acs.jced.5b00820).
± gives the expanded uncertainty stated by the source.

Experiment: xn = mol fraction of the nth substance listed
Conditions: 102.2 kPa, Liquid, Vibrating tube method

C[Si](C)(O[Si](C)(C)c1ccccc1)c1ccccc1 [1,3-diphenyltetramethyldisiloxane] + C=C[Si]1(C)O[Si](C)(C=C)O[Si](C)(C=C)O[Si](C)(C=C)O1
mass density [kg/m3]
Conditions | 308.15 K | 313.15 K | 318.15 K | 323.15 K | 328.15 K
x1 = 0.0511 | 972.67 ± 0.21 | 967.57 ± 0.21 | 962.46 ± 0.21 | 957.29 ± 0.21 | 952.25 ± 0.21
x1 = 0.1004 | 972.68 ± 0.21 | 967.63 ± 0.21 | 962.58 ± 0.21 | 957.53 ± 0.21 | 952.52 ± 0.21
x1 = 0.1503 | 972.67 ± 0.21 | 967.67 ± 0.21 | 962.67 ± 0.21 | 957.67 ± 0.21 | 952.66 ± 0.21
x1 = 0.2 | 972.66 ± 0.21 | 967.72 ± 0.21 | 962.77 ± 0.21 | 957.83 ± 0.21 | 952.88 ± 0.21
x1 = 0.2537 | 972.63 ± 0.21 | 967.74 ± 0.21 | 962.86 ± 0.21 | 957.97 ± 0.21 | 953.1 ± 0.21
x1 = 0.3001 | 972.56 ± 0.21 | 967.72 ± 0.21 | 962.9 ± 0.21 | 958.06 ± 0.21 | 953.26 ± 0.21
x1 = 0.3507 | 972.42 ± 0.21 | 967.63 ± 0.21 | 962.84 ± 0.21 | 958.04 ± 0.21 | 953.25 ± 0.21
x1 = 0.4002 | 972.3 ± 0.21 | 967.56 ± 0.21 | 962.83 ± 0.21 | 958.06 ± 0.21 | 953.33 ± 0.21
x1 = 0.4503 | 972.13 ± 0.21 | 967.44 ± 0.21 | 962.77 ± 0.21 | 958.08 ± 0.21 | 953.42 ± 0.21
x1 = 0.4999 | 971.87 ± 0.21 | 967.23 ± 0.21 | 962.58 ± 0.21 | 957.92 ± 0.21 | 953.25 ± 0.21
x1 = 0.5501 | 971.69 ± 0.21 | 967.12 ± 0.21 | 962.54 ± 0.21 | 957.94 ± 0.21 | 953.39 ± 0.21
x1 = 0.597 | 971.42 ± 0.21 | 966.89 ± 0.21 | 962.34 ± 0.21 | 957.8 ± 0.21 | 953.24 ± 0.21
x1 = 0.6498 | 971.17 ± 0.21 | 966.7 ± 0.21 | 962.23 ± 0.21 | 957.76 ± 0.21 | 953.3 ± 0.21
x1 = 0.7005 | 970.8 ± 0.21 | 966.35 ± 0.21 | 961.92 ± 0.21 | 957.49 ± 0.21 | 953.06 ± 0.21
x1 = 0.7492 | 970.45 ± 0.21 | 966.08 ± 0.21 | 961.71 ± 0.21 | 957.33 ± 0.21 | 952.96 ± 0.21
x1 = 0.8001 | 970.05 ± 0.21 | 965.73 ± 0.21 | 961.41 ± 0.21 | 957.09 ± 0.21 | 952.78 ± 0.21
x1 = 0.8497 | 969.63 ± 0.21 | 965.36 ± 0.21 | 961.11 ± 0.21 | 956.85 ± 0.21 | 952.59 ± 0.21
x1 = 0.8999 | 969.05 ± 0.21 | 964.82 ± 0.21 | 960.59 ± 0.21 | 956.35 ± 0.21 | 952.09 ± 0.21
x1 = 0.9502 | 968.57 ± 0.21 | 964.4 ± 0.21 | 960.23 ± 0.21 | 956.03 ± 0.21 | 951.87 ± 0.21
x1 = 1 | 968.05 ± 0.21 | 963.94 ± 0.21 | 959.84 ± 0.21 | 955.74 ± 0.21 | 951.65 ± 0.21

C[Si](C)(O[Si](C)(C)c1ccccc1)c1ccccc1 [1,3-diphenyltetramethyldisiloxane] + C[Si]1(CCC(F)(F)F)O[Si](C)(CCC(F)(F)F)O[Si](C)(CCC(F)(F)F)O1
mass density [kg/m3]
Conditions | 308.15 K | 313.15 K | 318.15 K | 323.15 K | 328.15 K
x1 = 0.0501 | 1225.8 ± 0.23 | 1219.39 ± 0.23 | 1212.88 ± 0.23 | 1206.4 ± 0.23 | 1199.88 ± 0.23
x1 = 0.1001 | 1214.52 ± 0.23 | 1208.2 ± 0.23 | 1201.82 ± 0.23 | 1195.45 ± 0.23 | 1189.07 ± 0.23
x1 = 0.1499 | 1203.4 ± 0.23 | 1197.13 ± 0.23 | 1190.88 ± 0.23 | 1184.63 ± 0.23 | 1178.37 ± 0.23
x1 = 0.2005 | 1191.71 ± 0.23 | 1185.57 ± 0.23 | 1179.46 ± 0.23 | 1173.35 ± 0.23 | 1167.25 ± 0.23
x1 = 0.2497 | 1180.12 ± 0.23 | 1174.1 ± 0.23 | 1168.1 ± 0.23 | 1162.13 ± 0.23 | 1156.13 ± 0.22
x1 = 0.3 | 1167.98 ± 0.23 | 1162.08 ± 0.23 | 1156.21 ± 0.22 | 1150.35 ± 0.22 | 1144.49 ± 0.22
x1 = 0.3431 | 1157.27 ± 0.23 | 1151.54 ± 0.22 | 1145.79 ± 0.22 | 1140.01 ± 0.22 | 1134.24 ± 0.22
x1 = 0.4001 | 1142.74 ± 0.22 | 1137.19 ± 0.22 | 1131.56 ± 0.22 | 1125.93 ± 0.22 | 1120.32 ± 0.22
x1 = 0.45 | 1130.1 ± 0.22 | 1124.64 ± 0.22 | 1119.13 ± 0.22 | 1113.61 ± 0.22 | 1108.09 ± 0.22
x1 = 0.4998 | 1117.1 ± 0.22 | 1111.69 ± 0.22 | 1106.32 ± 0.22 | 1100.93 ± 0.22 | 1095.54 ± 0.22
x1 = 0.5482 | 1104.11 ± 0.22 | 1098.84 ± 0.22 | 1093.55 ± 0.22 | 1088.31 ± 0.22 | 1083.03 ± 0.22
x1 = 0.5996 | 1089.99 ± 0.22 | 1084.84 ± 0.22 | 1079.71 ± 0.22 | 1074.57 ± 0.22 | 1069.43 ± 0.22
x1 = 0.6501 | 1075.78 ± 0.22 | 1070.7 ± 0.22 | 1065.65 ± 0.22 | 1060.62 ± 0.22 | 1055.6 ± 0.22
x1 = 0.7 | 1061.47 ± 0.22 | 1056.57 ± 0.22 | 1051.69 ± 0.22 | 1046.82 ± 0.21 | 1041.93 ± 0.21
x1 = 0.75 | 1046.74 ± 0.22 | 1041.96 ± 0.22 | 1037.22 ± 0.21 | 1032.47 ± 0.21 | 1027.7 ± 0.21
x1 = 0.8001 | 1031.67 ± 0.21 | 1027.02 ± 0.21 | 1022.41 ± 0.21 | 1017.79 ± 0.21 | 1013.17 ± 0.21
x1 = 0.8499 | 1016.33 ± 0.21 | 1011.73 ± 0.21 | 1007.33 ± 0.21 | 1002.84 ± 0.21 | 998.35 ± 0.21
x1 = 0.8998 | 1000.6 ± 0.21 | 996.22 ± 0.21 | 991.87 ± 0.21 | 987.37 ± 0.21 | 983.15 ± 0.21
x1 = 0.95 | 984.46 ± 0.21 | 980.22 ± 0.22 | 976.02 ± 0.22 | 971.79 ± 0.22 | 967.58 ± 0.22
x1 = 1 | 967.9 ± 0.21 | 963.8 ± 0.21 | 959.75 ± 0.21 | 955.65 ± 0.21 | 951.57 ± 0.21
